In patent publication US9084805B2, “Sialic acid to support the immune system in the elderly” (Nestec S.A., priority 2008, dated 2015):

Tests used:
Assay type in all cases: in vivo, C57BL/6J mice
[1] = system: HO-1; assay: Liver mRNA expression of HO-1 in aged mice (TaqMan low density array); conditions: 0.8 weight-% N-acetylneuraminic acid in diet for 42 days, vs non-supplemented AlN-93, n=8
Experimental: (§1) Specific pathogen-free male C57BL/6J mice (4-weeks old) were purchased from Janvier (France). Mice were housed under conventional circumstances (12 hours light/dark cycle, temperature 22° C., humidity 56%) and received water and semi-synthetic Kliba 3436 diet ad libitum. Until the age of 5 months, mice were maintained at 5 per cage and then they were individually caged. All conditions and handling of the animals were approved by the Nestle and state ethical committees with the agreement of the Swiss Federal Veterinary Advisor. […]
(§2) Mice were killed on day 42 of trial. The expression of genes involved in inflammatory processes was determined in the liver of aged mice that were supplemented or not with SiAc for 42 days. […]
(§3) Liver samples were transferred into 1 ml of RNA lysis buffer (Macherey-Nagel, Düren, Germany) and homogenized using Ribolyzer (Hybaid, Waltham, Mass., USA) with the following setting: power at 6 for 20 seconds. […] RNA quantification was achieved using the Ribogreen RNA Quantitation Kit (Molecular Probes; Eugene, Oreg. USA), and RNA quality was assayed using Agilent RNA 6000 Nano LabChip Kit (Agilent Technologies, Palo Alto, USA). […]

[2] = system: SOD2; assay: Liver mRNA expression of SOD2 in aged mice (TaqMan low density array); conditions: 0.8 weight-% N-acetylneuraminic acid in diet for 42 days, vs non-supplemented AlN-93, n=8
Experimental: as §1, §2, §3

[3] = system: aged mice; assay: Delayed-type hypersensitivity (DTH) response, ear swelling after KLH elicitation, in aged mice; conditions: aged mice (19-months old), 0.8 weight-% N-acetylneuraminic acid in AlN-93 diet, vs non-supplemented AlN-93, n=10
Experimental: Specific pathogen-free male C57BL/6J mice (4-weeks old) were purchased from Janvier (France). Mice were housed under conventional circumstances (12 hours light/dark cycle, temperature 22° C., humidity 56%) and received water and semi-synthetic Kliba 3436 diet ad libitum. Until the age of 5 months, mice were maintained at 5 per cage and then they were individually caged. All conditions and handling of the animals were approved by the Nestle and state ethical committees with the agreement of the Swiss Federal Veterinary Advisor. 19-months old mice were randomized into 2 groups of 10 animals and were fed with a semi-synthetic AlN-93 diet either non-supplemented (group control AlN-93, n=10) or supplemented with SiAc (0.8 weight-% N-acetylneuraminic acid in the diet) (group SiAc, n=10). During the 42 days of trial, all mice were allowed to drink and eat ad libitum.
The DTH response was used as an in vivo measure of cellular immunity. […] At 24 hours post-elicitation, and during the following 5 days, both the non-elicited (left ear) and the elicited ears (right ear) were measured. DTH responses (KLH-PBS) were expressed as the magnitude of ear swelling, i.e. the change in ear thickness using the following formula: Δ in ear thickness=[elicited ear (right, KLH) ear sickness−non-elicited (left, PBS) ear sickness], where Δ in ear thickness=[post-elicitation−pre-elicitation ear thickness].

[4] = system: TGF-β2; assay: Liver mRNA expression of TGF-β2 in aged mice (TaqMan low density array); conditions: 0.8 weight-% N-acetylneuraminic acid in diet for 42 days, vs non-supplemented AlN-93, n=8
Experimental: as §1, §2, §3

CC(=O)N[C@H]1[C@H]([C@H](O)[C@H](O)CO)OC(O)(C(=O)O)C[C@@H]1O (stereo partly shown) [SiAc, N-acetylneuraminic acid]
expression of gene encoding HO-1, defence against oxidative damage (FIG. 2) [1]: increased expression
expression of gene encoding SOD2, defence against oxidative damage (FIG. 2) [2]: increased expression
cell-mediated immune response (DTH response, FIG. 1) [3]: improved
expression of gene encoding anti-inflammatory molecule TGF-β2 (FIG. 2) [4]: increased expression
